Measured values published in patent US8680153B2, “Method for correcting a lipid imbalance in a subject” (The Royal Institution for the Advancement of …, priority 2005, dated 2014).
Several values for one entry are separate records, joined by “and”; a condition that tells them apart may be missing. Equal values may be shown once.

Experiments:
ceramide levels = experiment: Ceramide levels by ELISA in lung and plasma of uninfected mice, fenretinide diet supplementation; assay type: in vivo; conditions: 5 mg/kg per day in diet, 28 days, 5 mg/kg/day
Text: Animals. Inbred C57BL/6-Cftr mice breeding pairs, heterozygous (HZ) at the Cftr locus, were used. All babies were genotyped between days 12 and 14 of their life. The animals were kept in cages with sterile corn bedding (Anderson, Bestmonro, La.) and maintained in ventilated racks (Lab Products). Mice were fed with either the NIH-31-modified irradiated mouse diet (Harlan Teklad, Indianapolis, Ind.) or a liquid diet starting at 14 days of age (Peptamen liquid diet; Nestle Canada, Brampton, ON). The liquid diet were freshly prepared every morning and provided in 50-mL centrifuge tubes (Fisher Scientific Ltd, Nepean, ON). Age- and gender-matched C57BL/6-Cftr+/+ (wild-type) mice, (female; n=10, male; n=31) and C57BL/6-Cftr−/− (Cftr-KO) mice (female; n=8, male; n=18) were murine pathogen-, Helicobacter- and parasite-free. They were housed (1-4 animals/cage), bred and maintained in a barrier facility unit under specific pathogen-free conditions. Experimental procedures with the mice were conducted in accordance with the Canadian Council on Animal Care guidelines and with the approval of the Animal Care Committee of the McGill University Health Center, Montreal, Quebec, Canada.
(§1) Fenretinide Diet Supplementation. Examples 2 to 6: fenretinide (Sigma-Aldrich, Oakville, ON) powder was resuspended in 95% ethanol and subsequently incorporated in the Peptamen liquid diet. It was protected from light and kept at 4° C. before being given to the mice (5 mg/kg per day per mouse). Mock-treated diets were prepared similarly by adding ethanol to the Peptamen diet but omitting the fenretinide supplementation. The diet was given every morning for 28 consecutive days with specific monitoring of the quantity consumed by the mice in each cage. Examples 7 to 12: fenretinide powder was kindly provided by Dr. Robert Smith (NIH; Bethesda, Md., USA). Fenretinide was resuspended in 95% ethanol to make a 2 μg/μL concentration. Approximately 40 μL of this preparation was incorporated into the Peptamen liquid diet (5 mg/kg per day per mouse). The prepared food containing fenretinide was then stored in the dark at 4° C. for no more than 3 hours prior to being administered to the mice. To ensure that the entire drug dose was consumed, the mice were given 10 mL of fenretinide-treated Peptamen, which represents ⅔ of the daily mouse food consumption, in the late afternoon. The remaining 5 mL of Peptamen (without fenretinide) was given the following morning. Mice were treated twice a week for 4 weeks. During the treatment period each mouse was kept in a separate cage (including WT mice) and was monitored to ensure that the entire amount of Peptamen containing the fenretinide or with out was consumed. The diet for the mock-treated control group was prepared and administered similarly to that described above, by adding the same volume of ethanol to the Peptamen diet but omitting the fenretinide supplementation.
Ceramide/Sphingolipids analysis. The concentration of ceramide in the (lung, liver, ileum, pancreas homogenates) and plasma from mice and humans were determined by ELISA^39;40 on separated lipids samples by thin layer chromatography, as described above. The phospholipids from the dry silica were resuspended in ethanol and used to coat Nunc plates specific for lipid binding. Plates were then washed, incubated with blocking buffer for 1 hr at 37° C. […]

DHA and AA levels = experiment: Fatty acid analysis (DHA, AA, DHA/AA ratio) in lungs and plasma, 28 daily treatments; assay type: in vivo, mice
Description: as §1
Fatty Acid Analysis. Minced tissues isolated from mice were immersed in 1 mM BHA in chloroform and methanol (2:1 vol). For plasma samples (mouse and human), 100 μL of plasma was added to 1 mL of BHA. Lipids were then extracted from all samples according to standard methods (Folch, et al. (1957) J. Biol. Chem. 226:497-509). Identification of phospholipids was carried out by thin-layer chromatography extraction (Van Handel & Zilversmit (1957) J. Lab. Clin. Med. 50:152-157). Also, fractionated lipids were dried and resuspended in heptane:methanol:sulfuric acid (5:1:1) for free fatty acid extraction. Diazomethane was used to esterify the fatty acids released and the esters were identified by GC/MS (Hewlett Packard 5880A, WCOT capillary column (Supelco-10, 35 m×0.5 mm, 1 μm thick)) using commercial standards (Sigma-Aldrich).

[1] = system: DHA levels, DHA/AA ratio, ceramide levels, AA levels; experiment: Systemic lipid parameters in several organs, biweekly treatment for 4 weeks; assay type: in vivo, mice; conditions: four-week biweekly treatment
Description: Fenretinide Diet Supplementation. Examples 2 to 6: fenretinide (Sigma-Aldrich, Oakville, ON) powder was resuspended in 95% ethanol and subsequently incorporated in the Peptamen liquid diet. It was protected from light and kept at 4° C. before being given to the mice (5 mg/kg per day per mouse). Mock-treated diets were prepared similarly by adding ethanol to the Peptamen diet but omitting the fenretinide supplementation. The diet was given every morning for 28 consecutive days with specific monitoring of the quantity consumed by the mice in each cage. Examples 7 to 12: fenretinide powder was kindly provided by Dr. Robert Smith (NIH; Bethesda, Md., USA). Fenretinide was resuspended in 95% ethanol to make a 2 μg/μL concentration. Approximately 40 μL of this preparation was incorporated into the Peptamen liquid diet (5 mg/kg per day per mouse). […] During the treatment period each mouse was kept in a separate cage (including WT mice) and was monitored to ensure that the entire amount of Peptamen containing the fenretinide or with out was consumed. […]
Ceramide/Sphingolipids analysis. The concentration of ceramide in the (lung, liver, ileum, pancreas homogenates) and plasma from mice and humans were determined by ELISA^39;40 on separated lipids samples by thin layer chromatography, as described above. […]

[2] = fenretinide-treated Cftr-KO infected mice, lungs and plasma
[3] = wild-type mice, lungs and plasma

SMILES: CC1=C(/C=C/C(C)=C/C=C/C(C)=C/C(=O)Nc2ccc(O)cc2)C(C)(C)CCC1 [fenretinide, all-trans-N-(4-hydroxyphenyl) retinamide]
- Ceramide levels, fold-increase (FEN-treated over CTRL), Lung (ceramide levels; Cftr-KO mice): 7.0 fold and 7.0 (n = 3) fold
- Ceramide levels, fold-increase (FEN-treated over CTRL), Plasma (ceramide levels; Cftr-KO mice): 6.9 fold and 6.9 (n = 3) fold
- Ceramide levels, fold-increase (FEN-treated over CTRL), Lung (ceramide levels; HZ mice): 2.1 fold and 2.1 (n = 3) fold
- Ceramide levels, fold-increase (FEN-treated over CTRL), Plasma (ceramide levels; HZ mice): 2.7 fold and 2.7 (n = 3) fold
- Ceramide levels, fold-increase (FEN-treated over CTRL), Lung (ceramide levels; WT mice): 1.4 fold and 1.4 (n = 10) fold
- Ceramide levels, fold-increase (FEN-treated over CTRL), Plasma (ceramide levels; WT mice): 1.6 fold and 1.6 (n = 12) fold
- AA levels in the ileum, liver and pancreas (DHA and AA levels; Cftr-KO mice): decrease
- Difference in median DHA/AA index ratio, wild-type/Cftr-KO (DHA and AA levels; FEN-treated mice (untreated = 67-fold)): 7 fold
- Lowering of the difference in median DHA/AA index ratio between wild-type and Cftr-KO (DHA and AA levels; FEN-treated vs untreated): approximately 10 fold
- AA levels, median vs infected Cftr-KO untreated controls (DHA and AA levels; [2]): lower median
- Concentration of DHA incorporated in phospholipids, median vs wild-type infected controls (DHA and AA levels; [2]): lower median
- Free DHA concentration, median vs wild-type infected controls (DHA and AA levels; fenretinide-treated Cftr-KO infected mice, plasma): higher median
- Free DHA (percentile), median vs wild-type untreated uninfected controls (DHA and AA levels; fenretinide-treated infected wild-type mice, lungs and plasma): significant difference
- DHA incorporated in phospholipids (percentile of total fatty acids), median vs untreated Cftr-KO (DHA and AA levels; infected Cftr-KO mice, lungs and plasma): no difference
- DHA/AA median index ratio vs untreated Cftr-KO (DHA and AA levels; infected Cftr-KO mice, lungs and plasma (significant only in lungs)): increase
- DHA incorporated in phospholipids (percentile of total fatty acids), median vs untreated wild-type (DHA and AA levels; [3]): no difference
- DHA/AA median index ratio vs untreated wild-type (DHA and AA levels; [3]): no effect
- Defect/imbalance in DHA levels, DHA/AA ratio and ceramide levels in all organs ([1]; Cftr-KO and HZ mice): effective at correcting, at least partially
- AA levels in control organs (heart, kidney and spleen) ([1]; Cftr-KO mice): decreases the AA levels to normal
